Source: patent publication US20230045421A1 (priority 2018, published 2023)
pEC50: −log10 of the molar value.

What follows are compounds tested on HBV rcDNA (assay: HepDE19 assay with bDNA quantitation of HBV rcDNA). Details: HepDE19 assay, inhibition of formation of rcDNA; read-out: DE-19bDNA EC50.
Assay type: cell-based, hepatitis B virus
Summary of the method: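 Compounds, top concentration 25 μM in 8-point duplicate series, were applied to Tet-free HepDE19 cultures for 7 days. Branched-DNA quantitation of HBV rcDNA against untreated wells gave EC50 and EC90 by 4-parameter fit. Viability (CC50) came from ATP luminescence on parallel plates incubated 4 days.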

Structure (SMILES) | pEC50
CC(c1c[nH]c(=O)c2ccccc12)N(CC1CCCCC1)C(=O)Nc1ccc(F)c(Cl)c1 (single isomer, unassigned) [Compound 195, 3-(3-Chloro-4-fluorophenyl)-1-(cyclohexylmethyl)-1-(1-(1-oxo-1,2-dihydroisoquinolin-4-yl)ethyl)urea] | 7.52
CC(c1c[nH]c(=O)c2cnccc12)N(CCCO)C(=O)Nc1ccc(F)c(Cl)c1 (single isomer, unassigned) [Compound 252, 3-(3-Chloro-4-fluorophenyl)-1-(3-hydroxypropyl)-1-(1-(1-oxo-1,2-dihydro-2,7-naphthyridin-4-yl)ethyl)urea] | 7.28
CC(c1cnc(NCCN)c2ccccc12)N(C)C(=O)Nc1ccc(F)c(Cl)c1 (single isomer, unassigned) [Compound 250, 1-(1-(1-((2-Aminoethyl)amino)isoquinolin-4-yl)ethyl)-3-(3-chloro-4-fluorophenyl)-1-methylurea] | 5.82
CCCCN(C(=O)Nc1ccc(F)c(Cl)c1)C(C)c1cnc(OC)c2ccccc12 (single isomer, unassigned) [Compound 62, 1-Butyl-3-(3-chloro-4-fluorophenyl)-1-(1-(1-methoxyisoquinolin-4-yl)ethyl)urea] | 5.15
CC(c1cnc(OCc2ncn(C)n2)c2ccccc12)N(CCCO)C(=O)Nc1ccc(F)c(Cl)c1 (single isomer, unassigned) [Compound 255, 3-(3-Chloro-4-fluorophenyl)-1-(3-hydroxypropyl)-1-(1-(1-((1-methyl-1H-1,2,4-triazol-3-yl)methoxy)isoquinolin-4-yl)ethyl)urea] | 5.29
CC(c1c[nH]c(=O)c2c(Cl)cccc12)N(C)C(=O)Nc1ccc(F)c(Cl)c1 (single isomer, unassigned) [Compound 168, 1-(1-(8-Chloro-1-oxo-1,2-dihydroisoquinolin-4-yl)ethyl)-3-(3-chloro-4-fluorophenyl)-1-methylurea] | 7.15
CCN(C(=O)Nc1ccc(F)c(Cl)c1)C(C)c1cnc(OC)c2ccccc12 (single isomer, unassigned) [Compound 22, 3-(3-Chloro-4-fluorophenyl)-1-ethyl-1-(1-(1-methoxyisoquinolin-4-yl)ethyl)urea] | 5.02

Same assay, conditions: HepDE19 assay, inhibition of formation of relaxed circular DNA (rcDNA), bDNA quantitation; read-out: DE-19bDNA EC50

Structure (SMILES) | pEC50
CC(c1c[nH]c(=O)c2cc(F)c(F)cc12)N(C)C(=O)Nc1cccc(F)c1F (single isomer, unassigned) [Compound 431, 1-(1-(6,7-Difluoro-1-oxo-1,2-dihydroisoquinolin-4-yl)ethyl)-3-(2,3-difluorophenyl)-1-methylurea] | 6.54
CC(c1cnc(CO)c2ccccc12)N(C)C(=O)Nc1ccc(F)c(Cl)c1 (single isomer, unassigned) [Compound 327, 3-(3-Chloro-4-fluorophenyl)-1-(1-(1-(hydroxymethyl)isoquinolin-4-yl)ethyl)-1-methylurea] | 6.15
CCN(C(=O)Nc1ccc(F)c(F)c1)C(C)c1c[nH]c(=O)c2cc(F)c(F)cc12 (single isomer, unassigned) [Compound 422, 1-(1-(6,7-Difluoro-1-oxo-1,2-dihydroisoquinolin-4-yl)ethyl)-3-(3,4-difluorophenyl)-1-ethylurea] | 5.55
CC(c1c[nH]c(=O)c2c(F)c(F)ccc12)N(CCS(N)(=O)=O)C(=O)Nc1ccc(F)cc1 (single isomer, unassigned) [Compound 395, 2-(1-(1-(7,8-Difluoro-1-oxo-1,2-dihydroisoquinolin-4-yl)ethyl)-3-(4-fluorophenyl)ureido)ethane-1-sulfonamide] | 6.52
CC(c1c[nH]c(=O)c2c(F)c(F)ccc12)N(C)C(=O)Nc1ccc(F)c(Cl)c1 (single isomer, unassigned) [Compound 331, 3-(3-Chloro-4-fluorophenyl)-1-(1-(7,8-difluoro-1-oxo-1,2-dihydroisoquinolin-4-yl)ethyl)-1-methylurea] | 7.82
CC(c1c[nH]c(=O)c2ccccc12)N(Cc1ccncn1)C(=O)Nc1ccc(F)c(Cl)c1 (single isomer, unassigned) [Compound 322, 3-(3-Chloro-4-fluorophenyl)-1-(1-(1-oxo-1,2-dihydroisoquinolin-4-yl)ethyl)-1-(pyrimidin-4-ylmethyl)urea] | 6.46
CC(C)CN(C(=O)Nc1ccc(F)c(Cl)c1)C(C)c1cn(C)c(=O)c2cc(F)c(F)cc12 (single isomer, unassigned) [Compound 343, 3-(3-Chloro-4-fluorophenyl)-1-(1-(6,7-difluoro-2-methyl-1-oxo-1,2-dihydroisoquinolin-4-yl)ethyl)-1-isobutylurea] | 8.22
CC(c1c[nH]c(=O)c2cc(F)c(F)cc12)N(C)C(=O)Nc1cc(F)c(F)c(F)c1 (single isomer, unassigned) [Compound 415, 1-(1-(6,7-Difluoro-1-oxo-1,2-dihydroisoquinolin-4-yl)ethyl)-3-(3,4,5-trifluorophenyl)-1-methylurea] | 7.68

Same assay, conditions: Hepatitis B virus, HepDE19, HepDE19 assay, inhibition of formation of rcDNA; read-out: DE-19bDNA EC50

Structure (SMILES) | pEC50
COc1ncc(CN(CC2CC2)C(=O)Nc2ccc(F)c(Cl)c2)c2ccccc12 [Compound 31, 3-(3-Chloro-4-fluorophenyl)-1-(cyclopropylmethyl)-1-((1-methoxyisoquinolin-4-yl)methyl)urea] | 6.06
COc1ncc(CN(CCO)C(=O)Nc2ccc(F)c(Cl)c2)c2ccccc12 [Compound 21, 3-(3-Chloro-4-fluorophenyl)-1-(2-hydroxyethyl)-1-((1-methoxyisoquinolin-4-yl)methyl)urea] | 4.74
COCCCN(Cc1cnc(OC)c2ccccc12)C(=O)Nc1ccc(F)c(Cl)c1 [Compound 47, 3-(3-Chloro-4-fluorophenyl)-1-((1-methoxyisoquinolin-4-yl)methyl)-1-(3-methoxypropyl)urea] | 5.70
CC(c1c[nH]c(=O)c2ccccc12)N(C[C@H]1CC[C@H](O)CC1)C(=O)Nc1ccc(F)c(Cl)c1 (mixture of isomers) [Compound 221, trans-3-(3-Chloro-4-fluorophenyl)-1-((4-hydroxycyclohexyl)methyl)-1-(1-(1-oxo-1,2-dihydroisoquinolin-4-yl)ethyl)urea] | 6.68
[2H]C([2H])([2H])C([2H])([2H])N(C(=O)Nc1ccc(F)c(Cl)c1)[C@H](C)c1c[nH]c(=O)c2ccccc12 [Compound 99, (R)-3-(3-Chloro-4-fluorophenyl)-1-(ethyl-d5)-1-(1-(1-oxo-1,2-dihydroisoquinolin-4-yl)ethyl)urea] | 7.52
CC(c1cn(CC(F)(F)F)c(=O)c2ccccc12)N(C)C(=O)Nc1ccc(F)c(Cl)c1 (racemic) [Compound 228, 3-(3-Chloro-4-fluorophenyl)-1-methyl-1-(1-(1-oxo-2-(2,2,2-trifluoroethyl)-1,2-dihydroisoquinolin-4-yl)ethyl)urea] | 6.11
CC(C)CN(C(=O)Nc1ccc(F)c(Cl)c1)C(C)c1c[nH]c(=O)c2cc(F)c(F)cc12 (single isomer, unassigned) [Compound 280, 3-(3-Chloro-4-fluorophenyl)-1-(1-(6,7-difluoro-1-oxo-1,2-dihydroisoquinolin-4-yl)ethyl)-1-isobutylurea] | 6.68
CC(C)N(Cc1c[nH]c(=O)c2ccccc12)C(=O)Nc1ccc(F)c(Cl)c1 [Compound 26, 3-(3-Chloro-4-fluorophenyl)-1-isopropyl-1-((1-oxo-1,2-dihydroisoquinolin-4-yl)methyl)urea] | 6.37
Cc1cc(NC(=O)NCc2c[nH]c(=O)c3ccccc23)ccc1F [Compound 4, 1-(4-Fluoro-3-methylphenyl)-3-((1-oxo-1,2-dihydroisoquinolin-4-yl)methyl)urea] | 5.32

Same assay, conditions: Hepatitis B virus, HepDE19, HepDE19 assay, inhibition of formation of relaxed circular DNA (rcDNA), bDNA quantitation; read-out: DE-19bDNA EC50

Structure (SMILES) | pEC50
CC(c1c[nH]c(=O)c2cc(F)c(F)cc12)N(C)C(=O)NCc1ccc(F)cc1 (single isomer, unassigned) [Compound 478, 1-(1-(6,7-Difluoro-1-oxo-1,2-dihydroisoquinolin-4-yl)ethyl)-3-(4-fluorobenzyl)-1-methylurea] | 6.00
CC(C)CN(C(=O)Nc1ccc(F)c(Cl)c1)C(C)c1cnc(-n2cncn2)c2ccccc12 (racemic) [Compound 300, 1-(1-(1-(1H-1,2,4-triazol-1-yl)isoquinolin-4-yl)ethyl)-3-(3-chloro-4-fluorophenyl)-1-isobutylurea] | 7.70
CC(c1c[nH]c(=O)c2c(F)c(F)ccc12)N(C)C(=O)Nc1ccnc(Cl)c1 (single isomer, unassigned) [Compound 454, 3-(2-Chloropyridin-4-yl)-1-(1-(7,8-difluoro-1-oxo-1,2-dihydroisoquinolin-4-yl)ethyl)-1-methylurea] | 6.77

Same assay, conditions: read-out: DE-19bDNA EC50; HepDE19 assay, inhibition of formation of relaxed circular DNA (rcDNA), bDNA quantitation

Structure (SMILES) | pEC50
CN(C(=O)Nc1ccc(F)c(Cl)c1)C(CO)c1c[nH]c(=O)c2ccccc12 (single isomer, unassigned) [Compound 380, 3-(3-Chloro-4-fluorophenyl)-1-(2-hydroxy-1-(1-oxo-1,2-dihydroisoquinolin-4-yl)ethyl)-1-methylurea] | 4.77
CC(c1c[nH]c(=O)c2cc(F)c(F)cc12)N(C)C(=O)Nc1ccccc1F (single isomer, unassigned) [Compound 421, 1-(1-(6,7-Difluoro-1-oxo-1,2-dihydroisoquinolin-4-yl)ethyl)-3-(2-fluorophenyl)-1-methylurea] | 4.77
CC(c1c[nH]c(=O)c2cc(F)c(F)cc12)N(C)C(=O)Nc1cccc(Cl)c1 (single isomer, unassigned) [Compound 412, 1-(1-(6,7-Difluoro-1-oxo-1,2-dihydroisoquinolin-4-yl)ethyl)-3-(3-chlorophenyl)-1-methylurea] | 5.72
